Data on 23 compounds can be found in patent US12324802B2, “Modulators of cystic fibrosis transmembrane conductance regulator” (Vertex Pharmaceuticals Incorporated, priority 2020, dated 2025).

The EC50 is the concentration that produces a half-maximal response.

This assay deals with T1, CFTR (F508del/MF-HBE cells) (Homo sapiens, UniProt P13569, DEL508-508).
T1 construct: human bronchial epithelial (HBE) cells derived from CF subjects heterozygous for F508del and a minimal function CFTR mutation; endogenous in cells; host or cells: primary human bronchial epithelial cells from CF subjects (F508del/MF genotype)
T1 sequence (P13569 with tags, fused parts or gaps DEL508-508): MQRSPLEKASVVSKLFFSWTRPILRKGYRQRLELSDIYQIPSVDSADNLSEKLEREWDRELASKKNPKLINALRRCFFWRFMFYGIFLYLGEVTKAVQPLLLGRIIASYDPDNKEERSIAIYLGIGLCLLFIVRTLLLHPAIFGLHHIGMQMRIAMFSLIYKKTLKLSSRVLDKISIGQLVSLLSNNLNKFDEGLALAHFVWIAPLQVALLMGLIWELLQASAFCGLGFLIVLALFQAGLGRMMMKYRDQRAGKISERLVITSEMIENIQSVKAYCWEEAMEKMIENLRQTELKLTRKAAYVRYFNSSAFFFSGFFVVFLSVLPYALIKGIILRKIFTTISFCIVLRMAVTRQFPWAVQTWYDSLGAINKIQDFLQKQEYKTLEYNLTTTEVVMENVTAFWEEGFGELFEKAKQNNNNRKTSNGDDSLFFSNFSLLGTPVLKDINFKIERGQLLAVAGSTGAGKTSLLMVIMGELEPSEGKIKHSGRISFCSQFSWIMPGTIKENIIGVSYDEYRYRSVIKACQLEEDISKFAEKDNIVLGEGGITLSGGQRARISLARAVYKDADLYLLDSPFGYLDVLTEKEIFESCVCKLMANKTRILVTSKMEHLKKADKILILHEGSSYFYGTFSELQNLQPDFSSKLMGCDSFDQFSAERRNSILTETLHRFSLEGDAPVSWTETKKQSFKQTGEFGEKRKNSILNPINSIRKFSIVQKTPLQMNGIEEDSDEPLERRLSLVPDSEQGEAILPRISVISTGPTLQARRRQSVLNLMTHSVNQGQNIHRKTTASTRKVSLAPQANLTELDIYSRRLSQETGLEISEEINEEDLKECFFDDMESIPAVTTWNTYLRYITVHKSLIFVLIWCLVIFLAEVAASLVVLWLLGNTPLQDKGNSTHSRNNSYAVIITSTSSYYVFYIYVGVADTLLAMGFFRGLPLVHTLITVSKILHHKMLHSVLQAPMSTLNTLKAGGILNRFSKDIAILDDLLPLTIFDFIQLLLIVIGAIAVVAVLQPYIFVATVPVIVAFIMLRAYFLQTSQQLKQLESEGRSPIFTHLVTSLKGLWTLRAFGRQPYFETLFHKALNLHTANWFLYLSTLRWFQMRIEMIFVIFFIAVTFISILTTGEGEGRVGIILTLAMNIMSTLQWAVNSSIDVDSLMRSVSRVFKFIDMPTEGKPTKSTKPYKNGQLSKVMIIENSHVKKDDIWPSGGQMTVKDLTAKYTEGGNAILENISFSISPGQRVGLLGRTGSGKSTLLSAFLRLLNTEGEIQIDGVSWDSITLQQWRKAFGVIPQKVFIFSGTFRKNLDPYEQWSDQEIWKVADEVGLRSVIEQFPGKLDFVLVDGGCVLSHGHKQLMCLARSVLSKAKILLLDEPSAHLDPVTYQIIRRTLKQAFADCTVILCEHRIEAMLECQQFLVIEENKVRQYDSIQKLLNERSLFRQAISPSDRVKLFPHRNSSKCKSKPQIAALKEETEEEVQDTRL
The experiment in a line: Ussing chamber assay of CFTR-mediated short-circuit currents (identification of potentiator compounds). In kind it is cell-based. The settings on record: CFTR-mediated ISC in F508del/MF-HBE cells; incubated 18-24 hours at 37° C. with 10 μM (14S)-8-[3-(2-{dispiro[2.0.2.1]heptan-7-yl}ethoxy)-1H-pyrazol-1-yl]-...-2,2,4-trione, 20% human serum. The method, then:
Ussing Chamber Assay of CFTR-Mediated Short-Circuit Currents
Ussing chamber experiments were performed using human bronchial epithelial (HBE) cells derived from CF subjects heterozygous for F508del and a minimal function CFTR mutation (F508del/MF-HBE) and cultured as previously described (Neuberger T, Burton B, Clark H, Van Goor F Methods Mol Biol 2011:741:39-54). After four days the apical media was removed, and the cells were grown at an air liquid interface for >14 days prior to use.
To isolate the CFTR-mediated short-circuit (ISC) current, F508del/MF-HBE grown on Costar® Snapwell™ cell culture inserts were mounted in an Ussing chamber and the transepithelial ISC was measured under voltage-clamp recording conditions (Vhold=0 mV) at 37° C. The basolateral solution contained (in mM) 145 NaCl, 0.83 K2HPO4, 3.3 KH2PO4, 1.2 MgCl2, 1.2 CaCl2), 10 Glucose, 10 HEPES (pH adjusted to 7.4 with NaOH) and the apical solution contained (in mM) 145 NaGluconate, 1.2 MgCl2, 1.2 CaCl2), 10 glucose, 10 HEPES (pH adjusted to 7.4 with NaOH) and 30 μM amiloride to block the epithelial sodium channel. Forskolin (20 μM) was added to the apical surface to activate CFTR, followed by apical addition of a CFTR inhibitor cocktail consisting of BPO, GlyH-101 and CFTR inhibitor 172 (each at 20 μM final assay concentration) to specifically isolate CFTR currents. The CFTR-mediated ISC (μA/cm^2) for each condition was determined from the peak forskolin response to the steady-state current following inhibition.
Identification of Potentiator Compounds
The activity of the CFTR potentiator compounds on the CFTR-mediated ISC was determined in Ussing chamber studies as described above. The F508del/MF-HBE cell cultures were incubated with the potentiator compounds at a range of concentrations in combination with 10 μM (14S)-8-[3-(2-{dispiro[2.0.2.1]heptan-7-yl}ethoxy)-1H-pyrazol-1-yl]-12,12-dimethyl-2λ^6-thia-3,9,11,18,23-pentaazatetracyclo [17.3.1.111,14.05,10]tetracosa-1(22),5,7,9,19(23),20-hexaene-2,2,4-trione for 18-24 hours at 37° C. and in the presence of 20% human serum. The concentration of potentiator compounds and (14S)-8-[3-(2-{dispiro[2.0.2.1]heptan-7-yl}ethoxy)-1H-pyrazol-1-yl]-12,12-dimethyl-2λ^6-thia-3,9,11,18,23-pentaazatetracyclo [17.3.1.111,14.05,10]tetracosa-1(22),5,7,9,19(23),20-hexaene-2,2,4-trione used during the 18-24 hours incubations was kept constant throughout the Ussing chamber measurement of the CFTR-mediated ISC to ensure compounds were present throughout the entire experiment. The efficacy and potency of the putative F508del potentiators was compared to that of the known Vertex potentiator, ivacaftor (N-[2,4-bis(1,1-dimethylethyl)-5-hydroxyphenyl]-1,4-dihydro-4-oxoquinoline-3-carboxamide).
For the compound `COCCN1CCCCCCC(O)(C(F)(F)F)C2=NN=C(O2)c2nc1c(C(F)(F)F)cc2N` (single isomer, unassigned) [Compound 35, 17-amino-13-(2-methoxyethyl)-6,15-bis(trifluoromethyl)-19-oxa-3,4,13,18-tetrazatricyclo[12.3.1.12,5]nonadeca-1(18),2,4,14,16-pentaen-6-ol], the EC50 was greater than 1000 nM. To `CN1CCCCCCC(O)(C(F)(F)F)C2=NN=C(O2)c2nc1c(C(F)(F)F)cc2N` (single isomer, unassigned) [Compound 20, 17-amino-13-methyl-6,15-bis(trifluoromethyl)-19-oxa-3,4,13,18-tetrazatricyclo[12.3.1.12,5]nonadeca-1(18),2,4,14,16-pentaen-6-ol] belongs 500 to 1000 nM. To `CN1CCCCCCC(O)(C2CC2)C2=NN=C(O2)c2nc1c(C(F)(F)F)cc2N` (single isomer, unassigned) [Compound 78, 17-amino-6-cyclopropyl-13-methyl-15-(trifluoromethyl)-19-oxa-3,4,13,18-tetrazatricyclo[12.3.1.12,5]nonadeca-1(18),2,4,14,16-pentaen-6-ol] belongs less than 500 nM; to `CN1CCN(C)c2nc(c(N)cc2C(F)(F)F)C2=NN=C(O2)C(O)(C(F)(F)F)CCC1=O` (single isomer, unassigned) [Compound 44, 17-amino-6-hydroxy-10,13-dimethyl-6,15-bis(trifluoromethyl)-19-oxa-3,4,10,13,18-pentazatricyclo[12.3.1.12,5]nonadeca-1(18),2,4,14,16-pentaen-9-one], 500 to 1000 nM. Under `Nc1cc(C(F)(F)F)c2nc1-c1nnc(o1)C(O)(C(F)(F)F)CCCCCC1CCS(=O)(=O)N21` (single isomer, unassigned) [Compound 113, 20-amino-6-hydroxy-6,18-bis(trifluoromethyl)-22-oxa-15λ6-thia-3,4,16,21-tetraazatetracyclo[15.3.1.12,5.012,16]docosa-1(21),2,4,17,19-pentaene-15,15-dione] stands greater than 1000 nM. On to `Nc1cc(C(F)(F)F)c2nc1-c1nnc(o1)C(O)(C(F)(F)F)CCCCCCC1CCCN21` (single isomer, unassigned) [Compound 25, 21-amino-6,19-bis(trifluoromethyl)-23-oxa-3,4,17,22-tetraazatetracyclo[16.3.1.12,5.013,17]tricosa-1(22),2,4,18,20-pentaen-6-ol], for which the EC50 was less than 500 nM. To `Nc1cc(C(F)(F)F)c2nc1-c1nnc(o1)C(O)(C(F)(F)F)c1cccc(c1)CCC[C@@H]1CCCN21` (single isomer, unassigned) [Compound 70] belongs less than 500 nM; to `Nc1cc(C(F)(F)F)c2nc1-c1nnc(o1)C(O)(C(F)(F)F)CCCCCCC1CCCN21` (single isomer, unassigned) [Compound 24, 21-amino-6,19-bis(trifluoromethyl)-23-oxa-3,4,17,22-tetraazatetracyclo[16.3.1.12,5.013,17]tricosa-1(22),2,4,18,20-pentaen-6-ol], less than 500 nM. Under `Nc1cc(C(F)(F)F)c2nc1-c1nnc(o1)C(O)(C(F)(F)F)CCCCC[C@@H]1COCCN21` (single isomer, unassigned) [Compound 55] stands greater than 1000 nM. To `Nc1cc(C(F)(F)F)c2nc1-c1nnc(o1)C(O)(C(F)(F)F)CCCCC1CCCN21` (centres unmarked) [Compound 18, 19-amino-6,17-bis(trifluoromethyl)-21-oxa-3,4,15,20-tetraazatetracyclo[14.3.1.12,5.011,15]henicosa-1(20),2,4,16,18-pentaen-6-ol] belongs less than 500 nM.

With `Nc1cc(C(F)(F)F)c2nc1-c1nnc(o1)[C@@](O)(C(F)(F)F)c1cc(ccc1F)CCC[C@@H]1CCCN21` [Compound 60, (6R,15R)-23-amino-8-fluoro-6,21-bis(trifluoromethyl)-26-oxa-3,4,19,24-tetraazapentacyclo[18.3.1.12,5.17,11.015,19]hexacosa-1(24),2,4,7(25),8,10,20,22-octaen-6-ol], the EC50 is less than 500 nM. Under `CC1(C)CC2CCCc3ccc(F)c(c3)C(O)(C(F)(F)F)C3=NN=C(O3)c3nc(c(C(F)(F)F)cc3N)N2C1` (centres unmarked) [Compound 135, 23-amino-8-fluoro-17,17-dimethyl-6,21-bis(trifluoromethyl)-26-oxa-3,4,19,24-tetraazapentacyclo[18.3.1.12,5.17,11.015,19]hexacosa-1(24),2,4,7(25),8,10,20,22-octaen-6-ol] stands less than 500 nM; under `Nc1cc(C2CCOC2)c2nc1-c1nnc(o1)C(O)(C(F)(F)F)CCCCC[C@@H]1CCCN21` (mixture of isomers) [Compound 126, (12R)-20-amino-18-(oxolan-3-yl)-6-(trifluoromethyl)-22-oxa-3,4,16,21-tetraazatetracyclo[15.3.1.12,5.012,16]docosa-1(21),2,4,17,19-pentaen-6-ol], greater than 1000 nM. `Cn1cc(-c2cc(N)c3nc2N2CCC[C@H]2CCCCCC(O)(C(F)(F)F)C2=NN=C3O2)cn1` (mixture of isomers) [Compound 127, (12R)-20-amino-18-(1-methyl-1H-pyrazol-4-yl)-6-(trifluoromethyl)-22-oxa-3,4,16,21-tetraazatetracyclo[15.3.1.12,5.012,16]docosa-1(21),2,4,17,19-pentaen-6-ol]: the half-maximal effective concentration (EC50) was less than 500 nM. Under `Nc1cc(C(F)(F)F)c2nc1-c1nnc(o1)[C@@](O)(C(F)(F)F)CCCCCC(C(=O)N1CCCC1)N2` (single isomer, unassigned) [Compound 158] stands greater than 1000 nM; under `Nc1cc(C(F)(F)F)c2nc1-c1nnc(o1)[C@@](O)(C(F)(F)F)CCCCCC(C1CC1)N2` (single isomer, unassigned) [Compound 191], less than 500 nM. To `Nc1cc(-c2ccccc2)c2nc1-c1nnc(o1)C(O)(C(F)(F)F)CCCCC[C@@H]1CCCN21` (mixture of isomers) [Compound 118, (12R)-20-amino-18-phenyl-6-(trifluoromethyl)-22-oxa-3,4,16,21-tetraazatetracyclo[15.3.1.12,5.012,16]docosa-1(21),2,4,17,19-pentaen-6-ol] belongs greater than 1000 nM; to `Nc1cc(C(F)(F)F)c2nc1-c1nnc(o1)C(O)(C(F)(F)F)CCCC[C@@H]1CCCN21` (single isomer, unassigned) [Compound 32], less than 500 nM.

On to `Cc1cc(N)c2nc1N1CCC[C@H]1CCCCCC(O)(C(F)(F)F)C1=NN=C2O1` (single isomer, unassigned) [Compound 51], for which the EC50 was less than 500 nM. To `Nc1cc(C(F)(F)F)c2nc1-c1nnc(o1)[C@@](O)(C(F)(F)F)CCCCCC1(CCCC1)N2` [Compound 177, (6R)-17-amino-6,15-bis(trifluoromethyl)spiro[19-oxa-3,4,13,18-tetrazatricyclo[12.3.1.12,5]nonadeca-1(18),2,4,14,16-pentaene-12,1′-cyclopentane]-6-ol] belongs less than 500 nM; to `Nc1cc(C(F)(F)F)c2nc1-c1nnc(o1)[C@@](O)(C(F)(F)F)CCCCC[C@H]1CCCN21` (single isomer, unassigned) [Compound 7], less than 500 nM; to `Nc1cc(C(F)(F)F)c2nc1-c1nnc(o1)C(O)(C(F)(F)F)CCCCCC(CO)N2` (single isomer, unassigned) [Compound 105, 17-amino-12-(hydroxymethyl)-6,15-bis(trifluoromethyl)-19-oxa-3,4,13,18-tetrazatricyclo[12.3.1.12,5]nonadeca-1(18),2,4,14,16-pentaen-6-ol], greater than 1000 nM. To `CCOC(=O)C1CCCCCC(O)(C(F)(F)F)C2=NN=C(O2)c2nc(c(C(F)(F)F)cc2N)N1` (single isomer, unassigned) [Compound 94, ethyl 17-amino-6-hydroxy-6,15-bis(trifluoromethyl)-19-oxa-3,4,13,18-tetrazatricyclo[12.3.1.12,5]nonadeca-1(18),2,4,14,16-pentaene-12-carboxylate] belongs less than 500 nM.
